Results as given in US7342137B1, “Cyclohexenone compounds from Antrodia camphorata and application thereof” (Golden Biotechnology Corporation, priority 2007, dated 2008).

How the values were obtained:
[1] = tested on: human breast-cancer cells, MCF-7; test: In vitro Taxol add-on study (MTT), MCF-7; type: cell-based; conditions: 0.0017 μg/ml Taxol 72 hours, 0 μg/ml formula 2
Method: (§1) The experiment was also carried out according to NCI anti-cancer drug screen in vitro model. The human breast-cancer cells, MCF-7 and MDA-MB-231 were separately cultivated in media containing fetal calf serum for 24 hours. The proliferated cells were washed once with PBS, then treated with 1× trypsin-EDTA and centrifuged at 1200 rpm for 5 minutes. The supernatant was discarded and the cell pellet was resuspended in 10 ml of fresh culture medium by gently shaking. The cells were placed in a 96-well plate after 0.0017 μg/ml Taxol was added and treated for 72 hours. 4-hydroxy-2,3-dimethoxy-6-methyl-5(3,7,11-trimethyl-dodeca-2,6,10-trienyl)-cyclohex-2-enone obtained from example 1 were added respectively into each of the 96 wells at the following concentrations: 0 μg/ml (the control group); 30, 10, 3, 1, 0.3, 0.1 and 0.03 μg/ml (the experiment group). The cells were incubated at 37° C. in a 5% CO2 incubator for 48 hours. MTT was added in a concentration of 2.5 mg/ml into each well in dark and reacted for 4 hours, followed by the addition of 100 μl of lysis buffer to terminate the reaction. The plates were read on an ELISA reader at wavelength of 570 nm to determine the survival rates.

[2] = tested on: human prostate cancer cells, LNCaP; test: In vitro Taxol add-on study (MTT), prostate cancer cells LNCaP; type: cell-based; conditions: LNCaP (0.0017 μg/ml Taxol) as printed in Table 6; 0 μg/ml formula 2
Method: (§2) The experiment was also carried out according to NCI anti-cancer drug screen in vitro model. The human prostate cancer cells, LNCaP and DU-145 were separately cultivated in media containing fetal calf serum for 24 hours. The proliferated cells were washed once with PBS, then treated with 1× trypsin-EDTA and centrifuged at 1200 rpm for 5 minutes. The supernatant was discarded and the cell pellet was resuspended in 10 ml of fresh culture medium by gently shaking. The LNCaP cells were treated with 0.0017 μg/ml of Taxol for 72 hours and DU-145 cells were treated with 0.0043 μg/ml of Taxol for 72 hours before placing in a 96-well plate. 4-hydroxy-2,3-dimethoxy-6-methyl-5(3,7,11-trimethyl-dodeca-2,6,10-trienyl)-cyclohex-2-enone obtained from example 1 were added respectively into each of the 96 wells at the following concentrations: 0 μg/ml (the control group); 30, 10, 3, 1, 0.3, 0.1 and 0.03 μg/ml (the experiment group). The cells were incubated at 37° C. in a 5% CO2 incubator for 48 hours. MTT was added in a concentration of 2.5 mg/ml into each well in dark and reacted for 4 hours, followed by the addition of 100 μl of lysis buffer to stop the reaction. The plates were read on an ELISA reader at wavelength of 570 nm to determine the survival rates.

[3] = tested on: human prostate cancer cells, DU-145; test: In vitro Taxol add-on study (MTT), prostate cancer cells DU-145; type: cell-based; conditions: DU-145 (0.0043 μg/ml Taxol) as printed in Table 6; 0 μg/ml formula 2
Method: as §2

[4] = tested on: human hepatic cancer cells, Hep G2; test: In vitro Taxol add-on study (MTT), Hep G2; type: cell-based; conditions: 0.0017 μg/ml Taxol 72 hours, 0 μg/ml formula 2
Method: as §2, with “human hepatic” for “human prostate”, “cells, Hep 3B” for “cells, LNCaP”, “and Hep G2 […]” for “and DU-145”, “The Hep 3B cells were treated with 0.0043 μg/ml of Lovastatin for 72 hours and Hep G2” for “The LNCaP”, “0.0017” for “0.0017 μg/ml of Taxol for 72 hours and DU-145 cells were treated with 0.0043”

[5] = tested on: human breast-cancer cells, MDA-MB-231; test: In vitro Taxol add-on study (MTT), MDA-MB-231; type: cell-based; conditions: 0.0017 μg/ml Taxol 72 hours, 0 μg/ml formula 2
Method: as §1

[6] = tested on: Human low density lipoprotein (LDL); test: In vitro antioxidant activity study (Cu2+-induced LDL oxidation, diene formation); type: biochemical; conditions: for Tlag: LDL oxidised with 5 μM CuSO4; for Capacity values: capacity value 1 = 2 μM Trolox; for ΔTlag: difference between Tlag and Tlag0 (H2O)
Method: Human low density lipoprotein (LDL) oxidated with copper ion (Cu^2+) has been widely employed to assess antioxidant activities of samples to be assayed. Antioxidant activity of a sample is determined by the diene contents of LDL after oxidation and expressed in Trolox equivalents by using a standard curve calculated from the water-soluble vitamin E analogue Trolox standards (the antioxidant capacity value of 1 is expressed in terms of 2 μM of Trolox).
The following solutions were prepared firstly: double distilled water (the negative control group), 5 mM sodium phosphate buffer (SPB), 1 μM and 2 μM Trolox solution (the positive control group), and 40 μg/ml 4-hydroxy-2,3-dimethoxy-6-methyl-5(3,7,11-trimethyl-dodeca-2,6,10-trienyl)-cyclohex-2-enone isolated from example 1. The concentration of LDL cholesterol (LDL-C) was determined using enzyme reaction method, which was diluted to 0.1-0.25 mg/ml with 5 mM SPB. One hundred μl of the LDL was added into each well of a 96-well quartz plate, followed by addition of the abovementioned Trolox and the isolated compound from example 1. Standardized oxidizing agent CuSO4 was supplemented to induce oxidation at a final concentration of 5 μM in each 250 μl well. The plate was read on an ELISA reader at wavelength of 232 nm at 37 °C for 12 hours. The sampling time was 15 min.

[7] = tested on: human hepatic cancer cells, Hep 3B; test: In vitro Lovastatin add-on study (MTT), Hep 3B; type: cell-based; conditions: 0.0043 μg/ml Lovastatin 72 hours, 0 μg/ml formula 2
Method: as §2, with “human hepatic” for “human prostate”, “cells, Hep 3B” for “cells, LNCaP”, “and Hep G2 […]” for “and DU-145”, “The Hep 3B cells were treated with 0.0043 μg/ml of Lovastatin for 72 hours and Hep G2” for “The LNCaP”, “0.0017” for “0.0017 μg/ml of Taxol for 72 hours and DU-145 cells were treated with 0.0043”

CC(=O)O[C@H]1C(=O)[C@@]2(C)[C@H]([C@H](OC(=O)c3ccccc3)[C@]3(O)C[C@H](OC(=O)[C@H](O)[C@@H](NC(=O)c4ccccc4)c4ccccc4)C(C)=C1C3(C)C)[C@]1(OC(C)=O)CO[C@@H]1C[C@@H]2O [Taxol, reference compound]
Cell survival rate (%) [1]: 65 ± 1%
Cell survival rate (%) [2]: 56 ± 3%
Cell survival rate (%) [3]: 70 ± 2%
Cell survival rate (%) [4]: 81 ± 2%
Cell survival rate (%) [5]: 76 ± 3%

Cc1c(C)c2c(c(C)c1O)CCC(C)(C(=O)O)O2 (stereo not drawn) [Trolox]
Tlag ([6]; 1 μM Trolox): 266 min
Capacity values ([6]; 1 μM Trolox): 0.48
ΔTlag ([6]; 1 μM Trolox): 81 min
Tlag ([6]; 2 μM Trolox): 344 min
Capacity values ([6]; 2 μM Trolox): 1.00
ΔTlag ([6]; 2 μM Trolox): 159 min

CC[C@H](C)C(=O)O[C@H]1C[C@@H](C)C=C2C=C[C@H](C)[C@H](CC[C@@H]3C[C@@H](O)CC(=O)O3)[C@H]21 [Lovastatin, reference compound]
Cell survival rate (%) [7]: 61 ± 3%
